Reference: patent USRE45666E1, “Preparation of hydrophilic pressure sensitive adhesives having optimized adhesive properties” (priority 2000, dated 2015)
Like-named read-outs stand apart in the source and are kept apart here.

Columns and labels:
[1] = In vitro drug delivery rate across Carbosil membrane; assay type: in vitro ADME
Procedure: In vitro drug delivery rate determination from water-soluble PSA matrices was performed using human cadaver skin or a skin-imitating Carbosil membrane to protect the matrices from dissolving in the receptor solution. The patch was adhered to the center of a Carbosil membrane sheet of twice its area. The membrane margins were then wrapped around the sample. The back side of the packet was closely attached to a steel plate-holder to prevent direct contact of the matrix with the receptor solution. In a similar fashion, cadaver skin epidermis can be used instead of a Carbosil membrane. The holder with the wrapped sample was then submerged into an aqueous sink and in vitro drug delivery rate was determined using a USP rotating cylinder method paddle-over-disc. The rate of drug appearance rate in a receptor solution (0.15 M NaCl) at 35.0±0.5° C. was determined spectrophotometrically.

[2] = Styrene butadiene rubber matrix

Clc1cccc(Cl)c1N=C1NCCN1 [Clonidine]
Release rate from hydrophobic matrices (PIB matrix (Catapress ® TTS)): 1.6 ± 0.2 μg/cm^2h
Delivery rate from hydrophilic matrix via Carbosil ([1]; hydrophilic PVP-PEG matrix): 5 ± 2 μg/cm^2h

O=[N+]([O-])OCC(CO[N+](=O)[O-])O[N+](=O)[O-] [Nitroglycerin]
Delivery rate from hydrophilic matrix via Carbosil [1]: 160 ± 40 μg/cm^2h

CC(C)NCC(O)COc1cccc2ccccc12 (stereo not shown) [Propranolol]
Release rate from hydrophobic matrices [2]: 56 ± 4 μg/cm^2h
Delivery rate from hydrophilic matrix via Carbosil ([1]; hydrophilic PVP-PEG matrix): 118 ± 25 μg/cm^2h

Silabolin
Release rate from hydrophobic matrices [2]: 16 ± 7 μg/cm^2h
Delivery rate from hydrophilic matrix via Carbosil ([1]; hydrophilic PVP-PEG matrix): 131 ± 30 μg/cm^2h
